Assay results: patent US20140309419A1, “METHOD FOR ENHANCING THE THERMAL STABILITY OF IONIC COMPOUNDS” (Danmarks Tekniske Universite, priority 2011, published 2014)
Marks after values point to notes of the source that are not given here.

Experiments:
[1] = Thermal stability by TGA, inflection point method (TA2950 TGA, 5° C./min, dried air); assay type: physicochemical; conditions: not supported/neat
Excerpt: (§1) The term “upper operating temperature” as used herein refers to the highest temperature to which the ionic compound can be heated without undergoing thermal degradation. This temperature is usually and routinely measured by Thermo Gravimetric Analysis (TGA) and/or Differential Scanning calorimetry (DSC).

[2] = Thermal stability by TGA, T5% onset method (Mettler-Toledo TGA/DSC, 5° C./min, nitrogen); assay type: physicochemical; conditions: not supported/neat
Excerpt: as §1

[3] = Thermal stability by TGA, supported vs. unsupported, evaluation method not marked
Protocol: To test for such influence, adsorption experiments with butylmethylimidazolium acetate [BMIM][OAc] on four different porous silica types was carried out (FIG. 7a, 7b). The silicas had the following pore diameters: PG2000 (pore diameter 2000 Å), PG500 (pore diameter 500 Å), PG75 (pore diameter 75 Å) and MCM-41 (pore diameter 50 Å).
The silicas had the following pore diameters: PG2000 (pore diameter 2000 Å), PG500 (pore diameter 500 Å) and PG75 (pore diameter 75 Å).
Thermal stability was measured by using thermogravimetric analysis (TGA), with isocratic heating at 5° C. min^−1 under an inert nitrogen and/or dried air atmosphere. The decomposition temperatures were determined from both the T5% onset (onset temperature for 5% decomposition) in an isocratic TGA experiment, and from the inflection point (temperature at the inflection point of TGA curve, which indicates the point where the degradation rate is maximum). For T5% onset measurements, thermal stability was determined in a Mettler-Toledo Star^e TGA/DSC unit by heating from 25° C. to 800° C. with a heating rate of 5° C./min under nitrogen. For inflection point measurements, thermal stability was determined using a TA2950 TGA unit by heating from 25° C. to 800° C. with a heating rate of 5° C./min under dried air.

[4] = 10% (wt/wt) on PG75 silica (pore diameter 75 Å)
[5] = 10% (wt/wt) on PG500 silica (pore diameter 500 Å)
[6] = 10% (wt/wt) on PG2000 silica (pore diameter 2000 Å)

SMILES	Thermal Stability (inflection point) [1]	enhancement of thermal stability vs. unsupported [3, 4]	enhancement of thermal stability vs. unsupported [3, 5]	enhancement of thermal stability vs. unsupported [3, 6]	further results
CCCCC(CC)COC(=O)CC(C(=O)OCC(CC)CCCC)S(=O)(=O)O (centres unmarked) [Dioctylsulfosuccinic Acid [3], Dioctylsulfosuccinic Acid]	161.86^b ° C.				
CC(C)Cc1ccc(C(C)C(=O)O)cc1 (centres unmarked) [Ibuprofene (free acid), Ibuprofene]					Thermal Stability (T5% onset) [2]: 154.7^a ° C.
CC[N+](CC)(CC)CC.O=C(O)CNCP(=O)([O-])O [Tetraethylammonium Glyphosate [5], Tetraethylammonium Glyphosate]	149.76^b ° C.				
CCCCCCCCCCCCCCCC[N+](C)(C)C.Nc1nc2c(ncn2COCCO)c(=O)[n-]1 [Trimethylhexadecylammonium acyclovir [2], Trimethylhexadecylammonium Acyclovir]	188.60^b ° C.				
CCCCn1cc[n+](C)c1.[Cl-] [[BMIM][Cl], butylmethylimidazolium chloride]		no enhancement of thermal stability	no enhancement of thermal stability	no enhancement of thermal stability	
CC(=O)[O-].CCCCn1cc[n+](C)c1 [[BMIM][OAc], butylmethylimidazolium acetate]		significant enhancement of the thermal stability	no enhancement of thermal stability	no enhancement of thermal stability	enhancement of thermal stability vs. unsupported ([3]; 10% (wt/wt) on MCM-41 silica (pore diameter 50 Å)): significant enhancement of the thermal stability
